Laboratory results: patent publication US9187465B2, “Oxazole tyrosine kinase inhibitors” (Sareum Limited, priority 2007, dated 2015)

Experiments:
Format in all cases: biochemical
human FLT4 = target: T1, human FLT4 (Homo sapiens, UniProt P35916); assay: FLT4 kinase assay (DELFIA enzyme inhibition); conditions: read-out: FLT4 IC50
T1 construct: a construct expressing the human FLT4 (789-1207) with an amino terminal GST tag; host or cells: Sf9 insect cells (baculovirus)
How it was run: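 Read-out is DELFIA: biotinylated MET Tyr1253-derived peptide captured on Neutravidin, phosphotyrosine detected by Eu-antibody time-resolved fluorescence. Enzyme is Sf9-expressed GST-FLT4 (789-1207), reacting 30 min at room temperature before EDTA stop. IC50 derived from plotted % inhibition.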

human Aurora A = target: T2, human Aurora A (Homo sapiens, UniProt O14965); assay: Aurora A kinase assay (DELFIA enzyme inhibition); conditions: read-out: Aurora A IC50
T2 construct: Histidine tag (N); host or cells: Sf9 insect cells (baculovirus)
T2 sequence (O14965 1-403): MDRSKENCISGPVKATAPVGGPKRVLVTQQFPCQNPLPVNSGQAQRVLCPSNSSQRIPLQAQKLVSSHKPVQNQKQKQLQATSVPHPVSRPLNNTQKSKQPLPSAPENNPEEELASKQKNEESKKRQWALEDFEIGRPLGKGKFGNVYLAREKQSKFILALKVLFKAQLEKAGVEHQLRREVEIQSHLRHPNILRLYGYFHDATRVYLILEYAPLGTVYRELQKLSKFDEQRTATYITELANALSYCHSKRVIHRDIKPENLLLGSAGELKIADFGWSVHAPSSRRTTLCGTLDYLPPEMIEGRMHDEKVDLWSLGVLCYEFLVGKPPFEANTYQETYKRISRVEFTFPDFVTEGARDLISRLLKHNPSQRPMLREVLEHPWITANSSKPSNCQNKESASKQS
How it was run: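 DELFIA read-out (time-resolved Eu fluorescence, 620 nm emission) after Neutravidin capture of biotinylated peptide substrate and antibody detection. Reaction: Ni-agarose-purified Aurora A, 30 min at room temperature, stopped with 100 mM EDTA.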

human FLT3 = target: T3, human FLT3 (Homo sapiens, UniProt P36888); assay: FLT3 kinase assay (DELFIA enzyme inhibition)
T3 construct: a construct expressing the human FLT3 (564-993) with an amino terminal GST tag; host or cells: Sf9 insect cells (baculovirus)
T3 sequence (P36888 564-993): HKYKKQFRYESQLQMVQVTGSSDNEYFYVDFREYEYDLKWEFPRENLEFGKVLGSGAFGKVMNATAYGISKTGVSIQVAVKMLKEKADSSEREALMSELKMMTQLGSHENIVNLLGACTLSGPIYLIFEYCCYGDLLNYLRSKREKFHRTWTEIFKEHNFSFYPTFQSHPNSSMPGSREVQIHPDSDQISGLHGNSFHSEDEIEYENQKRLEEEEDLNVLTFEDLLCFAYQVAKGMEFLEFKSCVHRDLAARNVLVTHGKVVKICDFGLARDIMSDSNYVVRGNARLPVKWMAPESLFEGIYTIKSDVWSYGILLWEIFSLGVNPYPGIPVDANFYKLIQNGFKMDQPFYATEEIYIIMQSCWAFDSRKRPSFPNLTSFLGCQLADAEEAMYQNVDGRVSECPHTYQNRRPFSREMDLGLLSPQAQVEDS
How it was run: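 GST-tagged human FLT3 (564-993), expressed in sf9 cells, phosphorylated a biotinylated Gastrin Precursor (Tyr 87)-derived peptide for 30 min at room temperature before EDTA stop. The captured peptide was detected by Eu-labelled anti-phosphotyrosine DELFIA time-resolved fluorescence. IC50 was derived from % inhibition curves.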

T1 sequence (P35916 789-1207): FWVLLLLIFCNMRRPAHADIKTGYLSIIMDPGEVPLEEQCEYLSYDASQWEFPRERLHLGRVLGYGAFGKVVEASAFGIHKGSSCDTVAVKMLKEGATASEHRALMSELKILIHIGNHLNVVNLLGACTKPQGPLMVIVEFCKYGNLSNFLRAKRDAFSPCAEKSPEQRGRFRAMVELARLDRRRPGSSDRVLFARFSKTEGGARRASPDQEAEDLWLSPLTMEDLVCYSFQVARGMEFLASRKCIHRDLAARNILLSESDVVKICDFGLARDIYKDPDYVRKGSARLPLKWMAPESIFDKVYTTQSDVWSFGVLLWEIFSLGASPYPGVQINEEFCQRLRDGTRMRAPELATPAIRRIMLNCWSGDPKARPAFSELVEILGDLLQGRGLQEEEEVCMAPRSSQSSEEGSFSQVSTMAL

Structure (SMILES) | IC50 (human FLT4) | IC50 (human Aurora A) | IC50 (human FLT3)
CN1CCN(CCOc2ccc(-c3oc(-c4c(F)cccc4F)nc3C(N)=O)cc2)CC1 [Example S-1, 2-(2,6-difluorophenyl)-5-(4-(2-(4-methylpiperazin-1-yl)ethoxy)phenyl)oxazole-4-carboxamide] | < 10 µM | < 10 µM | < 100 µM
NC(=O)c1nc(-c2c(F)cccc2N2CCC(O)CC2)oc1-c1ccc(OCCN2CCC(O)CC2)cc1 [Example S-3, 2-(2-fluoro-6-(4-hydroxypiperidin-1-yl)phenyl)-5-(4-(2-(4-hydroxypiperidin-1-yl)ethoxy)phenyl)oxazole-4-carboxamide] | < 100 µM | < 100 µM | < 100 µM
NC(=O)c1nc(-c2c(F)cccc2F)oc1-c1ccc(OCCN2CCC(O)CC2)cc1 [Example S-4, 2-(2,6-difluorophenyl)-5-(4-(2-(4-hydroxypiperidin-1-yl)ethoxy)phenyl)oxazole-4-carboxamide] | < 10 µM | < 10 µM | < 100 µM
NC(=O)c1nc(-c2c(F)cccc2F)oc1-c1ccc(OCCN2CCC[C@H]2CO)cc1 [Example S-5, (S)-2-(2,6-difluorophenyl)-5-(4-(2-(2-(hydroxymethyl)pyrrolidin-1-yl)ethoxy)phenyl)oxazole-4-carboxamide] | < 10 µM | < 10 µM | < 100 µM
NC(=O)c1nc(-c2c(F)cccc2F)oc1-c1ccc(OCCN2CCC[C@@H]2CO)cc1 [Example S-6, (R)-2-(2,6-difluorophenyl)-5-(4-(2-(2-(hydroxymethyl)pyrrolidin-1-yl)ethoxy)phenyl)oxazole-4-carboxamide] | < 10 µM | < 10 µM | < 10 µM
NC(=O)c1nc(-c2c(F)cccc2F)oc1-c1ccc(OCCN2CCN(CCO)CC2)cc1 [Example S-7, 2-(2,6-difluorophenyl)-5-(4-(2-(4-(2-hydroxyethyl)piperazin-1-yl)ethoxy)phenyl)oxazole-4-carboxamide] | < 10 µM | < 10 µM | < 10 µM
CN(CCO)CCOc1ccc(-c2oc(-c3c(F)cccc3F)nc2C(N)=O)cc1 [Example S-8, 2-(2,6-difluorophenyl)-5-(4-(2-((2-hydroxyethyl)(methyl)amino)ethoxy)phenyl)oxazole-4-carboxamide] | < 10 µM | < 10 µM | < 10 µM
NC(=O)c1nc(-c2c(F)cccc2F)oc1-c1ccc(OCCN2CCNC(=O)C2)cc1 [Example S-9, 2-(2,6-difluorophenyl)-5-(4-(2-(3-oxopiperazin-1-yl)ethoxy)phenyl)oxazole-4-carboxamide] | < 10 µM | < 10 µM | < 10 µM
NC(=O)c1nc(-c2c(F)cccc2F)oc1-c1ccc(OCCN2CCC(C(N)=O)CC2)cc1 [Example S-10, 1-(2-(4-(4-carbamoyl-2-(2,6-difluorophenyl)oxazol-5-yl)phenoxy)ethyl)piperidine-4-carboxamide] | < 10 µM | < 10 µM | < 10 µM
CN(CCOc1ccc(-c2oc(-c3c(F)cccc3F)nc2C(N)=O)cc1)Cc1ccccc1 [Example S-11, 5-(4-(2-(benzyl(methyl)amino)ethoxy)phenyl)-2-(2,6-difluorophenyl)oxazole-4-carboxamide] | < 10 µM | < 100 µM | < 10 µM
NC(=O)c1nc(-c2c(F)cccc2F)oc1-c1ccc(OCCCN2CCCCC2)cc1 [Example S-12, 2-(2,6-difluorophenyl)-5-(4-(3-(piperidin-1-yl)propoxy)phenyl)oxazole-4-carboxamide] | < 10 µM | < 10 µM | < 10 µM
NC(=O)c1nc(-c2c(F)cccc2F)oc1-c1ccc(OCCCN2CCOCC2)cc1 [Example S-13, 2-(2,6-difluorophenyl)-5-(4-(3-morpholinopropoxy)phenyl)oxazole-4-carboxamide] | < 10 µM | < 10 µM | < 10 µM

The next lines start with the values.

IC50 (human FLT4) | IC50 (human Aurora A) | IC50 (human FLT3) | Structure (SMILES)
< 10 µM | < 10 µM | < 10 µM | NC(=O)c1nc(-c2c(F)cccc2F)oc1-c1ccc(OCC(O)CN2CCCCC2)cc1 (stereo not drawn) [Example T-1, 2-(2,6-difluorophenyl)-5-(4-(2-hydroxy-3-(piperidin-1-yl)propoxy)phenyl)oxazole-4-carboxamide]
< 10 µM | < 10 µM | < 10 µM | NC(=O)c1nc(-c2c(F)cccc2F)oc1-c1ccc(OCC(O)CN2CCOCC2)cc1 (stereo not drawn) [Example T-2, 2-(2,6-difluorophenyl)-5-(4-(2-hydroxy-3-morpholinopropoxy)phenyl)oxazole-4-carboxamide]
< 10 µM | < 10 µM | < 10 µM | CN1CCN(CC(O)COc2ccc(-c3oc(-c4c(F)cccc4F)nc3C(N)=O)cc2)CC1 (stereo not drawn) [Example T-3, 2-(2,6-difluorophenyl)-5-(4-(2-hydroxy-3-(4-methylpiperazin-1-yl)propoxy)phenyl)oxazole-4-carboxamide]
< 10 µM | < 10 µM | < 10 µM | NC(=O)c1nc(-c2c(F)cccc2F)oc1-c1ccc(OCC(O)CN2CCC(O)CC2)cc1 (stereo not drawn) [Example T-4, 2-(2,6-difluorophenyl)-5-(4-(2-hydroxy-3-(4-hydroxypiperidin-1-yl)propoxy)phenyl)oxazole-4-carboxamide]
< 10 µM | < 10 µM | < 10 µM | NC(=O)c1nc(-c2c(F)cccc2F)oc1Nc1ccc(C(=O)O)cc1 [Example U-1, 4-(4-carbamoyl-2-(2,6-difluorophenyl)oxazol-5-ylamino)benzoic acid]
< 10 µM | < 10 µM | < 10 µM | NC(=O)c1nc(-c2c(F)cccc2F)oc1Nc1ccc(C(=O)NCC2CN(Cc3ccccc3)CCO2)cc1 (stereo not drawn) [Example U-5, 5-(4-(((4-benzylmorpholin-2-yl)methyl)carbamoyl)phenylamino)-2-(2,6-difluorophenyl)oxazole-4-carboxamide]
< 10 µM | < 10 µM | < 10 µM | NC(=O)c1nc(-c2c(F)cccc2F)oc1Nc1ccc(C(=O)N2CCC[C@@H]2CO)cc1 [Example U-12, (R)-2-(2,6-difluorophenyl)-5-(4-(2-(hydroxymethyl)pyrrolidine-1-carbonyl)phenylamino)oxazole-4-carboxamide]
< 10 µM | < 10 µM | < 10 µM | NC(=O)c1nc(-c2c(F)cccc2F)oc1Nc1ccc(C(=O)N2CCC[C@H]2CO)cc1 [Example U-13, (S)-2-(2,6-difluorophenyl)-5-(4-(2-(hydroxymethyl)pyrrolidine-1-carbonyl)phenylamino)oxazole-4-carboxamide]
< 10 µM | < 10 µM | < 10 µM | NC(=O)c1nc(-c2c(F)cccc2F)oc1Nc1ccc(C(=O)N2CCCCC2CO)cc1 (stereo not drawn) [Example U-14, 2-(2,6-difluorophenyl)-5-(4-(2-(hydroxymethyl)piperidine-1-carbonyl)phenylamino) oxazole-4-carboxamide]
< 10 µM | < 10 µM | < 10 µM | NC(=O)c1nc(-c2c(F)cccc2F)oc1Nc1ccc(C(=O)N2CCCC(O)C2)cc1 (stereo not drawn) [Example U-15, 2-(2,6-difluorophenyl)-5-(4-(3-hydroxypiperidine-1-carbonyl)phenylamino)oxazole-4-carboxamide]
< 10 µM | < 10 µM | < 10 µM | NC(=O)c1nc(-c2c(F)cccc2F)oc1Nc1ccc(C(=O)NCCO)cc1 [Example U-16, 5-(4-((2-hydroxyethyl)carbamoyl)phenylamino)-2-(2,6-difluorophenyl)oxazole-4-carboxamide]
< 10 µM | < 10 µM | < 10 µM | NC(=O)c1nc(-c2c(F)cccc2F)oc1Nc1ccc(C(=O)NCCCO)cc1 [Example U-17, 5-(4-((3-hydroxypropyl)carbamoyl)phenylamino)-2-(2,6-difluorophenyl)oxazole-4-carboxamide]
